# From patent US20120252792A1, “METHODS AND COMPOSITIONS FOR MODULATING RHO-MEDIATED GENE TRANSCRIPTION” (THE REGENTS OF THE UNIVERSITY OF MICHIGAN, priority 2009, published 2012)
# pIC50: −log10 of the molar value.
# Legend:
# [1] = test system: PC-3 prostate cancer cells; assay: WST1 cell viability assay; format: cell-based, human; details: Homo sapiens, PC-3 cells, just before lysis; for inhibition at 10 µM: PC-3, 10 μM, read-out: % inh WST-1 (10 μM); for inhibition at 100 µM: PC-3, 100 μM, read-out: % inh WST-1 (100 μM)
# Experimental: WST1 Cell Viability Assay: One hour prior to cell lysis for the dual luciferase assay, 10 μl per well of WST1 reagent (Roche) was added to the 96-well plates. Plates were incubated for 1 hour at 37° C. and 5% CO2. Cell viability was measured by WST1 absorbance at 450 nm with a Victor2 (Perkin-Elmer) plate reader.
# Rho/MKL1 pathway = assay: SRE.L-firefly luciferase reporter (dual luciferase assay), Gα12QL-transfected PC-3 cells; format: cell-based, human; details: Homo sapiens; for inhibition at 10 µM / inhibition at 100 µM: DMSO alone = 0%; for inhibition at 10 µM: read-out: % inh SRE.L (10 μM); for inhibition at 100 µM: read-out: % inh SRE.L (100 μM)
# Experimental: Dual Luciferase Assay: Seed PC-3 prostate cancer cells (40,000 cells/well) were grown in 96-well plates in 10% FBS containing DMEM medium. Cells were transiently transfected with the Gα12QL activator of the Rho/MKL1 pathway, along with the SRE.L-firefly luciferase reporter construct for 6 hours. Additionally, cells were co-transfected with the TK-Renilla luciferase reporter as an indicator of non-specific compound effects. Various concentrations of selected compounds were added to the 96-well plates. Plates were incubated for 19 hours at 37° C. and 5% CO2 in 0.5% FBS containing DMEM medium. Cells were lysed with 1X Passive Lysis Buffer (Promega). Plates were incubated for 30 minutes at room temperature. Luminescence counts were read with a Victor2 (Perkin-Elmer) plate reader.
SMILES,inhibition at 10 µM [1] [%],inhibition at 100 µM [1] [%],inhibition at 10 µM (Rho/MKL1 pathway; 19 h) [%],inhibition at 100 µM (Rho/MKL1 pathway; 19 h) [%],pIC50 (Rho/MKL1 pathway; 19 h),pIC50 (Rho/MKL1 pathway; 19 hrs)
"O=C(NC1CCN(c2ccc(Cl)cc2)C1)c1cc(C(F)(F)F)cc(C(F)(F)F)c1 (centres unmarked) [Compound 58, N-(1-(4-chlorophenyl)pyrrolidin-3-yl)-3,5-bis(trifluoromethyl)benzamide]",-10.5,-1.7,-4.6,10.5,,
"CC(C)(C)OC(=O)NC1CCN(c2ccc(Cl)cc2)C1 (centres unmarked) [Compound 57, tert-butyl (1-(4-chlorophenyl)pyrrolidin-3-yl)carbamate]",9.2,21.1,-44.4,18.7,,
"O=C(NC1CC(=O)N(c2ccc(Cl)cc2)C1)c1cc(C(F)(F)F)cc(C(F)(F)F)c1 (centres unmarked) [Compound 47, N-(1-(4-chlorophenyl)-5-oxopyrrolidin-3-yl)-3,5-bis(trifluoromethyl)benzamide]",-0.8,14.3,18,57.8,4.74,
"O=C(NC1CC(=O)N(c2ccc(Cl)cc2)C1)c1cc(F)cc(F)c1 (centres unmarked) [Compound 49, N-(1-(4-chlorophenyl)-5-oxopyrrolidin-3-yl)-3,5-difluorobenzamide]",-6.1,0.6,-8.4,13.4,,
"COc1cc(NCCCNC(=O)c2cc(C(F)(F)F)cc(C(F)(F)F)c2)ccc1Cl [Compound 21, N-(3-(4-chloro-3-methoxyphenylamino)propyl)-3,5-bis(trifluoromethyl)benzamide]",,,,,5.14,
"O=C(c1cc(C(F)(F)F)cc(C(F)(F)F)c1)N1CCC(=O)N(c2ccc(Cl)cc2)CC1 [Compound 24, 1-(3,5-bis(trifluoromethyl)benzoyl)-4-(4-chlorophenyl)-1,4-diazepan-5-one]",,,,30,< 4.00,
"FC(F)(F)c1cc(CN2CCCC(CNc3ccc(Cl)cc3)C2)cc(C(F)(F)F)c1 (centres unmarked) [Compound 50, N-((1-(3,5-bis(trifluoromethyl)benzyl)piperidin-3-yl)methyl)-4-chloroaniline]",20.9,32.2,0.9,70.2,,
"COc1ccc(N2CC(NC(=O)c3cc(C(F)(F)F)cc(C(F)(F)F)c3)CC2=O)cc1Cl (centres unmarked) [Compound 55, N-(1-(3-chloro-4-methoxyphenyl)-5-oxopyrrolidin-3-yl)-3,5-bis(trifluoromethyl)benzamide]",7.4,23.9,4.5,26,,
"COc1ccc(NC(=O)CONC(=O)c2cc(C(F)(F)F)cc(C(F)(F)F)c2)cc1Cl [Compound 9, N-(2-(3-chloro-4-methoxyphenylamino)-2-oxoethoxy)-3,5-bis(trifluoromethyl)benzamide]",,,,,4.94,
O=C(N[C@@H]1CCC[C@@H]1C(=O)Nc1ccc(Cl)cc1)c1cc(C(F)(F)F)cc(C(F)(F)F)c1 [Compound 39],,,,,< 4.00,
"O=C(NC1CC(=O)N(c2ccc(Cl)cc2)C1)OCc1ccccc1 (centres unmarked) [Compound 31, Benzyl 1-(4-chlorophenyl)-5-oxopyrrolidin-3-ylcarbamate]",,,,,4.26,
"CN(C(=O)CONC(=O)c1cc(C(F)(F)F)cc(C(F)(F)F)c1)c1ccc(Cl)cc1 [Compound 11, N-(2-((4-chlorophenyl)(methyl)amino)-2-oxoethoxy)-3,5-bis(trifluoromethyl)benzamide]",,,,,3.95,
"O=C(NCCCNc1ccc(Cl)nc1)c1cc(C(F)(F)F)cc(C(F)(F)F)c1 [Compound 42, N-(3-((6-chloropyridin-3-yl)amino)propyl)-3,5-bis(trifluoromethyl)benzamide]",-7.4,64.7,-1.7,95.1,4.61,
"O=C(NCCCNc1ccc(Cl)cn1)c1cc(C(F)(F)F)cc(C(F)(F)F)c1 [Compound 44, N-(3-((5-chloropyridin-2-yl)amino)propyl)-3,5-bis(trifluoromethyl)benzamide]",17.6,39.4,20.5,82.9,3.18,
"O=C1Nc2ccc(Cl)cc2C1=CNC(=O)c1cc(C(F)(F)F)cc(C(F)(F)F)c1 [Compound 54, N-((5-chloro-2-oxoindolin-3-ylidene)methyl)-3,5-bis(trifluoromethyl)benzamide]",10.6,17.7,6.5,12.2,,
O=C(c1cc(C(F)(F)F)cc(C(F)(F)F)c1)N1CCCC(CNc2ccc(Cl)cc2)C1 (centres unmarked) [Compound 56],24.8,22.4,11.5,8.3,,

SMILES,inhibition at 10 µM [1] [%],inhibition at 100 µM [1] [%],inhibition at 10 µM (Rho/MKL1 pathway; 19 h) [%],inhibition at 100 µM (Rho/MKL1 pathway; 19 h) [%],pIC50 (Rho/MKL1 pathway; 19 h),pIC50 (Rho/MKL1 pathway; 19 hrs)
"O=C(NC1CC(=O)N(c2ccc(Cl)cc2)C1)OCc1cc(F)cc(F)c1 (centres unmarked) [Compound 46, 3,5-difluorobenzyl (1-(4-chlorophenyl)-5-oxopyrrolidin-3-yl)carbamate]",0.1,67.5,13.7,76.1,,
"O=C(Nc1ccc(Cl)cc1)C1CCCN(C(=O)c2cc(C(F)(F)F)cc(C(F)(F)F)c2)C1 (centres unmarked) [Compound 4, 1-(3,5-bis(trifluoromethyl)benzoyl)-N-(4-chlorophenyl)piperidine-3-carboxamide]",0,14,,,,
"O=C(c1cc(C(F)(F)F)cc(C(F)(F)F)c1)N1CCC(Nc2ccc(Cl)cc2)CC1 [Compound 17, (3,5-bis(trifluoromethyl)phenyl)(4-(4-chlorophenylamino)piperidin-1-yl)methanone]",,,,,,4.97
"O=C(Nc1cc(C(F)(F)F)cc(C(F)(F)F)c1)C1CC(=O)N(c2ccc(Cl)cc2)C1 (centres unmarked) [Compound 51, N-(3,5-bis(trifluoromethyl)phenyl)-1-(4-chlorophenyl)-5-oxopyrrolidine-3-carboxamide]",55.9,74.6,74.3,99.2,,
"O=C1CC(NC(=O)c2cc(C(F)(F)F)cc(C(F)(F)F)c2)c2cc(Cl)ccc2N1 (centres unmarked) [Compound 48, N-(6-chloro-2-oxo-1,2,3,4-tetrahydroquinolin-4-yl)-3,5-bis(trifluoromethyl)benzamide]",4.3,-2.7,4.9,2.5,,
"COc1ccc(NC(=O)C2CCCN(C(=O)c3cc(C(F)(F)F)cc(C(F)(F)F)c3)C2)cc1Cl (centres unmarked) [Compound 12, 1-(3,5-bis(trifluoromethyl)benzoyl)-N-(3-chloro-4-methoxyphenyl)piperidine-3-carboxamide]",,,,,5.22,
"O=C(NCCCNc1ccc(Cl)cc1)c1cc(F)cc(F)c1 [Compound 43, N-(3-((4-chlorophenyl)amino)propyl)-3,5-difluorobenzamide]",-9.9,73,-6.5,95.7,4.46,
"COc1ccc(NC(=O)CCNC(=O)c2cc(C(F)(F)F)cc(C(F)(F)F)c2)cc1Cl [Compound 13, N-(3-(3-chloro-4-methoxyphenylamino)-3-oxopropyl)-3,5-bis(trifluoromethyl)benzamide]",,,,,3.85,
"O=C(CCNC(=O)c1cc(C(F)(F)F)cc(C(F)(F)F)c1)NCc1ccc(Cl)cc1 [Compound 25, N-(3-(4-chlorobenzylamino)-3-oxopropyl)-3,5-bis(trifluoromethyl)benzamide]",,,,,5.30,
O=C(CCc1cn(-c2cc(C(F)(F)F)cc(C(F)(F)F)c2)nn1)Nc1ccc(Cl)cc1 [Compound 40],,,,,< 4.00,
"O=C(NC1CC(=O)N(c2ccc(Cl)cc2)C1)OCc1cc(C(F)(F)F)cc(C(F)(F)F)c1 (centres unmarked) [Compound 45, 3,5-bis(trifluoromethyl)benzyl (1-(4-chlorophenyl)-5-oxopyrrolidin-3-yl)carbamate]",0.6,8.4,9.4,68,4.87,
O=C(NCCc1cn(-c2ccc(Cl)cc2)nn1)c1cc(C(F)(F)F)cc(C(F)(F)F)c1 [Compound 41],,,,,< 4.00,
"COc1cc(N2CC(NC(=O)c3cc(C(F)(F)F)cc(C(F)(F)F)c3)CC2=O)ccc1Cl (centres unmarked) [Compound 52, N-(1-(4-chloro-3-methoxyphenyl)-5-oxopyrrolidin-3-yl)-3,5-bis(trifluoromethyl)benzamide]",-0.3,42.2,-18.4,16.9,,
"O=C(NCC1CCN(c2ccc(Cl)cc2)C1=O)c1cc(C(F)(F)F)cc(C(F)(F)F)c1 (centres unmarked) [Compound 53, N-((1-(4-chlorophenyl)-2-oxopyrrolidin-3-yl)methyl)-3,5-bis(trifluoromethyl)benzamide]",7.9,26.9,14.1,32.3,,
"COc1ccc(NCCCNC(=O)c2cc(C(F)(F)F)cc(C(F)(F)F)c2)cc1Cl [Compound 20, N-(3-(3-chloro-4-methoxyphenylamino)propyl)-3,5-bis(trifluoromethyl)benzamide]",,,,,5.00,
